Measured values reported in ChEMBL document CHEMBL1201862, “PubChem BioAssay data set” (2004).
Active and inactive are the calls of the source.

Key:
[1] = target: T1, Heat shock factor protein 1 (Mus musculus, UniProt P38532); test: inhibition of MG132-induced HSE-luciferase signal, confirmation, cell-based, NIH3T3, luminescence, dose retest (AID 2382); type: functional;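 note: NIH3T3 fibroblasts with HSF1-driven luciferase reporter stressed by proteasome inhibitor MG132; luminescence from HSF1-driven luciferase expression after 8 hours of MG132 stress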
T1 sequence (P38532 whole entry): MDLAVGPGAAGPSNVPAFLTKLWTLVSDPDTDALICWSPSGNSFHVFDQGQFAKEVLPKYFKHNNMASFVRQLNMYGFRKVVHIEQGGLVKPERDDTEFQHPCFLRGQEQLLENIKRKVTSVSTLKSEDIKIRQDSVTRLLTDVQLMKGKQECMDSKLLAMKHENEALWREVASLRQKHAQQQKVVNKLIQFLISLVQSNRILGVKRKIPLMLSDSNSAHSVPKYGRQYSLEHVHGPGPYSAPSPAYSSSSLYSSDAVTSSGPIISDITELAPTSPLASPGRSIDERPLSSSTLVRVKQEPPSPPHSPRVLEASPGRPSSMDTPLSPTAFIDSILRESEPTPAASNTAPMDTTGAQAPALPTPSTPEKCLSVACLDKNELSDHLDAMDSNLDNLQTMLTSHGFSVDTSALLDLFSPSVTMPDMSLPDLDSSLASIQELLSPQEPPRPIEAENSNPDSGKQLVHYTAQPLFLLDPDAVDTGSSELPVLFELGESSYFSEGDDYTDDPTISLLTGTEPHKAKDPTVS

[2] = Luminescence Cell-Based Dose Confirmation HTS to Identify Inhibitors of Platelet Dense Granule Release. [Related pubchem assays: 1663 (Primary HTS), 1678 (Summary of Project)]; type: functional
[3] = target: Luciferin 4-monooxygenase (Photinus pyralis, UniProt P08659); test: firefly luciferase enzyme inhibitors, dose response, biochemical, luminescence (AID 1891)
[4] = target: T2, RNA-binding protein pos-1 (Caenorhabditis elegans, UniProt G5EF15); test: inhibitors of POS-1/mex-3 RNA binding, dose response, biochemical, fluorescence polarization (AID 1964);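 note: purified POS-1 fused to maltose binding protein made in E. coli; potency of compounds blocking POS-1 binding to fluorescent RNA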
T2 sequence (G5EF15 whole entry): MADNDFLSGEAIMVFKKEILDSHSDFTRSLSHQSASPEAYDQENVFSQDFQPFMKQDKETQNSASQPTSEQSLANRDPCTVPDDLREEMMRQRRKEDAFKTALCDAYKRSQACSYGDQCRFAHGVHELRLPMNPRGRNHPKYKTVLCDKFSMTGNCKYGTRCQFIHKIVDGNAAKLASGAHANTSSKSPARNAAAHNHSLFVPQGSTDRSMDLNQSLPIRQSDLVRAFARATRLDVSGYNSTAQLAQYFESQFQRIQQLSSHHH

[5] = target: T3, Zinc finger protein mex-5 (Caenorhabditis elegans, UniProt Q9XUB2); test: MEX-5/TCR-2 RNA interaction inhibitors, dose response, biochemical, C. elegans, fluorescence polarization (AID 1960)
T3 sequence (Q9XUB2 whole entry): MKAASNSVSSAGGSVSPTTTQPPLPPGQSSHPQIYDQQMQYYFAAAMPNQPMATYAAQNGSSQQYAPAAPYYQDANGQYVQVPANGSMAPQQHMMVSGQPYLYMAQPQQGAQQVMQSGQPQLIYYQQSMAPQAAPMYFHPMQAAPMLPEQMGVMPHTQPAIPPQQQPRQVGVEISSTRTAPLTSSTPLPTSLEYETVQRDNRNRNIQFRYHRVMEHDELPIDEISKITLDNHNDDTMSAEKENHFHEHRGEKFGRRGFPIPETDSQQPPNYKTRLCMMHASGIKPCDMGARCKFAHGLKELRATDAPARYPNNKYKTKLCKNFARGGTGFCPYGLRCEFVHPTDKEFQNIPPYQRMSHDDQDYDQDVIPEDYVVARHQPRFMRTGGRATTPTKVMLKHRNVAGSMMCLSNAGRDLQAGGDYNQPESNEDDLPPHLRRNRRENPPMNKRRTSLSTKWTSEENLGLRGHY

[6] = growth suppression of PTEN-null colon cells, dose response, cell-based, HCT116 PTEN knockout (AID 1047); type: functional;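 note: HCT116 colon tumor cells with PTEN knocked out; cells exposed to compound for 60 hours before readout; potency for loss of cell viability measured by luminescence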
[7] = growth suppression of beta-catenin-knockout colon cells, dose response, cell-based, HCT116, human colon tumor (AID 1045); type: functional;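 note: HCT116 colon tumor cells with beta catenin knocked out; cells exposed to compound for 60 hours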
[8] = target: T4, Fatty acid synthase (Homo sapiens, UniProt P49327); test: FAS thioesterase domain inhibitors, dose response, biochemical, endpoint fluorescence intensity, uHTS hits (AID 624327); type: functional;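 note: fluorescence from hydrolysis of an O-methyl fluorescein acyl ester substrate by the enzyme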
[9] = target: T4, Fatty acid synthase; test: FAS thioesterase domain inhibitors, dose response, biochemical, kinetic fluorescence intensity (AID 624326); type: functional;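 note: rate of fluorescence rise from hydrolysis of a fluorogenic O-methyl fluorescein ester substrate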
[10] = test system: Streptococcus; test: Group A Streptococcus viability loss, dose response, counter-screen for streptokinase expression inhibitor project, luminescence, BacTiterGlo (AID 1915); type: functional, organism-based;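 note: potency for reduction of bacterial viability or growth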
[11] = test system: Streptococcus sp. 'group A'; test: growth inhibition of control SK(-) GAS strain, dose response, counter-screen for streptokinase expression inhibitor project, luminescence, kanamycin, BacTiterGlo, confirmation (AID 1900); type: functional, organism-based
[12] = target: T5, Streptokinase A (Streptococcus pyogenes serotype M1, UniProt P10520); test: S. pyogenes streptokinase expression inhibitors, potency, dose response, plasminogen activation absorbance, OD405 (AID 1914); type: functional, Streptococcus pyogenes M1 GAS;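 note: secreted streptokinase activity via plasminogen activation per viability signal from cell pellet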
T5 sequence (P10520 whole entry): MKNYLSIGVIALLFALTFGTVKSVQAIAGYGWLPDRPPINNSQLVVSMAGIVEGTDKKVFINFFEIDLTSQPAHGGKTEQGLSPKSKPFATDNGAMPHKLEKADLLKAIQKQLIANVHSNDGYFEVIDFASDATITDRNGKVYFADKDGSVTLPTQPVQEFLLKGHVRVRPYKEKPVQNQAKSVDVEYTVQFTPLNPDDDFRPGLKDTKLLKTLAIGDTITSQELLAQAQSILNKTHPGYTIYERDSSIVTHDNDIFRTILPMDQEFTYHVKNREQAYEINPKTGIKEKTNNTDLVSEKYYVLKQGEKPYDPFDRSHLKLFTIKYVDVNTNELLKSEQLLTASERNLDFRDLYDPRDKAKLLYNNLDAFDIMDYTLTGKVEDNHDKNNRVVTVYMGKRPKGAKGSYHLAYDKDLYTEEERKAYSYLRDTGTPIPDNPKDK

[13] = inhibitors of SNCA 5'UTR-driven reporter translation, confirmation, H4 neuroglioma cells, luminescence (AID 1988); type: functional, cell-based
[14] = Luminescence Cell-Based Dose Response HTS to Identify Inhibitors of 5'UTR Stem-Loop Driven Prion Protein mRNA Translation in H4 Neuroglioblastoma Cells. [Related pubchem assays: 1827 (Project Summary), 1813 (Primary HTS)]; type: functional
[15] = inhibitors of firefly luciferase expression or activity, dose response, H4 neuroglioma cells, luminescence (AID 1990); type: functional, cell-based
[16] = target: T6, Calpain-2 catalytic subunit (Sus scrofa, UniProt P43367); test: pig calpain II inhibitor potency, dose response, biochemical, fluorogenic peptide substrate (AID 1420); type: functional
T6 sequence (P43367 whole entry): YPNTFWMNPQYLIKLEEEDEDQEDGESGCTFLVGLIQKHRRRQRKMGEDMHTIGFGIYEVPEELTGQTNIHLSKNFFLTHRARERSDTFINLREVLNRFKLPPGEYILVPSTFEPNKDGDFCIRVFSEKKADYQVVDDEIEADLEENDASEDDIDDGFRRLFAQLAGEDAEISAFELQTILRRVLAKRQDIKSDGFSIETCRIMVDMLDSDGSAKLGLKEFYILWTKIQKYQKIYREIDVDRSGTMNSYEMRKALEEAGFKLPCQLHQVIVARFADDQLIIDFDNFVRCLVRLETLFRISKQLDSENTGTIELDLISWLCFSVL

[17] = target: T7, Polyadenylate-binding protein 1 (Homo sapiens, UniProt P11940); test: PABP1 MLLE–PAM2 interaction inhibitors, dose response, miRNA deadenylation inhibitor project, biochemical, fluorescence polarization, Cy5-PAM2 peptide, secondary (AID 602260); type: functional; details: read-out: IC50_Mean
[18] = target: T7, Polyadenylate-binding protein 1; test: PABP1 MLLE–PAM2 binding inhibitor potency, dose response, biochemical, fluorescence polarization, FITC-PAM2 peptide (AID 602259); type: functional; details: read-out: IC50_Mean
[19] = target: T8, Corticotropin-releasing factor receptor 2/Corticotropin-releasing factor-binding protein (Homo sapiens, UniProt P24387+Q13324); test: activators of CRF receptor 2 with binding protein – uHTS hits, confirmation (AID 602473); type: functional; details: read-out: EC50_Mean
T8 sequence (Q13324 whole entry): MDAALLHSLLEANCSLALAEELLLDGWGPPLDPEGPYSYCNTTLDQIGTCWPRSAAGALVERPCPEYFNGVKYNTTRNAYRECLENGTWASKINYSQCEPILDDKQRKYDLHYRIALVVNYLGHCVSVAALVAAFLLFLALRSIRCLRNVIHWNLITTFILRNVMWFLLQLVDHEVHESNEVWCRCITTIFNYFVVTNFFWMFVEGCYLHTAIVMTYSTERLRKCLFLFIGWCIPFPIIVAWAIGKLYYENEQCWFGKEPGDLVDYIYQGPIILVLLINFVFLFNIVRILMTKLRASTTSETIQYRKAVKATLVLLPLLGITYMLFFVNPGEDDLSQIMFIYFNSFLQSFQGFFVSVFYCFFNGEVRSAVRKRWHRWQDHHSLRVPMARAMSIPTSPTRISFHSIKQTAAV
T8 sequence (P24387 whole entry): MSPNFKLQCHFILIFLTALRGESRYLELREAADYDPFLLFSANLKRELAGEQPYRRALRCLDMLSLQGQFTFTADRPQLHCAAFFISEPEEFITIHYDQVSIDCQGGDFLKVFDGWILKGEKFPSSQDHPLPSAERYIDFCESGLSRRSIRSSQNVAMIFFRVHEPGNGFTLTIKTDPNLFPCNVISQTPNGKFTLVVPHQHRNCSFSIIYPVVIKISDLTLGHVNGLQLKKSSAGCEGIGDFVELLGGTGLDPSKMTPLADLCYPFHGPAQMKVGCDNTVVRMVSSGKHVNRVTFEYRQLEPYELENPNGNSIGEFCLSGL

[20] = target: Cytochrome P450 2C9 (Homo sapiens, UniProt P11712)
Cytochrome P450 2C9, sequence (P11712 whole entry): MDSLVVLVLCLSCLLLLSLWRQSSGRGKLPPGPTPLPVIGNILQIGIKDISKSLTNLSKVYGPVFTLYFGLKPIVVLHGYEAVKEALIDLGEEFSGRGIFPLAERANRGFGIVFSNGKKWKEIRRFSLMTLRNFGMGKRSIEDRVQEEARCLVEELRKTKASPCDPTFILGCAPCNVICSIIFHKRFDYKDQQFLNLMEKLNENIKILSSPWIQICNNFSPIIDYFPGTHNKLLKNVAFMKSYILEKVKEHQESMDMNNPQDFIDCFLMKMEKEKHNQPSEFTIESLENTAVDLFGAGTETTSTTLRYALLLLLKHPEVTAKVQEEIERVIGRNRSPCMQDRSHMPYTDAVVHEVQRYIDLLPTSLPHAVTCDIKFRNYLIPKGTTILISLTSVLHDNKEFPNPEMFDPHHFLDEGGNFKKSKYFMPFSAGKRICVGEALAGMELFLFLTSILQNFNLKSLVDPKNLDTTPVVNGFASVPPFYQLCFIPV

T4 sequence (P49327 whole entry, the tested form may be a part): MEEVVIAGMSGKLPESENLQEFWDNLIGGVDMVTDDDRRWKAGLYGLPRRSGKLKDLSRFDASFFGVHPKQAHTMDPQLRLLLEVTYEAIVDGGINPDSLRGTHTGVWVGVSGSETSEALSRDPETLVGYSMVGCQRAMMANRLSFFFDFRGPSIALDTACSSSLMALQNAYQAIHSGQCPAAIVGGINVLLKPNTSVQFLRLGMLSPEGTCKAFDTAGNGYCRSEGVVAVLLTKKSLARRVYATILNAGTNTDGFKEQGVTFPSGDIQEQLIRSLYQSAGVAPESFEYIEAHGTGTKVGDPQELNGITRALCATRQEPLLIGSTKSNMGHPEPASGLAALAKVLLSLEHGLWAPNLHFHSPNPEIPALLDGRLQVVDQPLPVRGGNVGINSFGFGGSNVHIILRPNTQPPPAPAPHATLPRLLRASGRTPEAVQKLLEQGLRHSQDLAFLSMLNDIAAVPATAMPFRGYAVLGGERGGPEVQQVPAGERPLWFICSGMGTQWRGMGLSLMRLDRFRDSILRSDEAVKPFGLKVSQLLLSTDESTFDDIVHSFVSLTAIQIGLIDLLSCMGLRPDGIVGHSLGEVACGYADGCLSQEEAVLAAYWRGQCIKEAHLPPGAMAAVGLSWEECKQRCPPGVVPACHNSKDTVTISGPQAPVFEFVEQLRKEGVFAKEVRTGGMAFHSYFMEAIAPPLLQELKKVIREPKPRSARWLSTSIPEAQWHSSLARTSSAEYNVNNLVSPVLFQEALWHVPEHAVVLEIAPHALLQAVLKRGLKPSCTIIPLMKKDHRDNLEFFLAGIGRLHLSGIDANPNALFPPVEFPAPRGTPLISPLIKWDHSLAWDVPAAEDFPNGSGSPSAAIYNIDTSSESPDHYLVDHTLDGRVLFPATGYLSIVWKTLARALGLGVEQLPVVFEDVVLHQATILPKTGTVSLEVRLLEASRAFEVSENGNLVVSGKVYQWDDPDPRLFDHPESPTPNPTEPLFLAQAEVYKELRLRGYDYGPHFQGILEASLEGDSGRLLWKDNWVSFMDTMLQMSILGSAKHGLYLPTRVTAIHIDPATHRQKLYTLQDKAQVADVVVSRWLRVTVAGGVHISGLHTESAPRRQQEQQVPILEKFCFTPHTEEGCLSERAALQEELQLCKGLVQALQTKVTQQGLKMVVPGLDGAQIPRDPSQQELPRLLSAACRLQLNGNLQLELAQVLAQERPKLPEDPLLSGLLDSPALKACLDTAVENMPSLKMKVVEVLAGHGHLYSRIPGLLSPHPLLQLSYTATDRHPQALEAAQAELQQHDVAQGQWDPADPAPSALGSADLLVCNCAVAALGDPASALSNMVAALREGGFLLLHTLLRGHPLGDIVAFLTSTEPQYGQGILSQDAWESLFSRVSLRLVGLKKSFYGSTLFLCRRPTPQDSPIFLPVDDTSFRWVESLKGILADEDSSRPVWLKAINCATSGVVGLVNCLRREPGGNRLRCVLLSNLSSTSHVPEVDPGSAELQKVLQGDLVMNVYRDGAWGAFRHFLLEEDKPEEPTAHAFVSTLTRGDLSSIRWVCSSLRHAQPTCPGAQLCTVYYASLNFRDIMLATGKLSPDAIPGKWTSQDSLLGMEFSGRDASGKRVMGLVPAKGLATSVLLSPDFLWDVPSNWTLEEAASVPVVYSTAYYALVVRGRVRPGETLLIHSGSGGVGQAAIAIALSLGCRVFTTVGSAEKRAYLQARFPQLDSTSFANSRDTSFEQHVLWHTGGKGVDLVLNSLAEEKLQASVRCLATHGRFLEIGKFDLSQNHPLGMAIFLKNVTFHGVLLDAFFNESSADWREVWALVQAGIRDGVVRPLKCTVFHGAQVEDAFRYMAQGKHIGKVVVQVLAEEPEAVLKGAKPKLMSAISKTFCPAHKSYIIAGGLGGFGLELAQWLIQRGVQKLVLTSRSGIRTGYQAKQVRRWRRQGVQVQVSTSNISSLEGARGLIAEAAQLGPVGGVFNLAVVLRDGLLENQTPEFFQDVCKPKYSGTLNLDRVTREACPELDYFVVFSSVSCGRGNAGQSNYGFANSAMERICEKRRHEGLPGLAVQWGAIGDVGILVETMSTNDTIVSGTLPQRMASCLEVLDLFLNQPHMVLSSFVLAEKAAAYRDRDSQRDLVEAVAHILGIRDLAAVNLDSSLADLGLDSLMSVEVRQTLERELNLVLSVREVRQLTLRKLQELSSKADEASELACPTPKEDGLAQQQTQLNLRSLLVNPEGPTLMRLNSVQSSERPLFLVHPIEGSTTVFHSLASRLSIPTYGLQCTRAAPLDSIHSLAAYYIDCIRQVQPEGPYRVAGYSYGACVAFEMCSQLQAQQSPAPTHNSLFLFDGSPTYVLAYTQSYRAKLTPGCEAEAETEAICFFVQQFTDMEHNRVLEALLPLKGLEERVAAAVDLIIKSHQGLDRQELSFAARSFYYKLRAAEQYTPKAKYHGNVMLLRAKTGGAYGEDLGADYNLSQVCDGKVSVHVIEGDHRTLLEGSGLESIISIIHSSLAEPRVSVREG
T7 sequence (P11940 whole entry): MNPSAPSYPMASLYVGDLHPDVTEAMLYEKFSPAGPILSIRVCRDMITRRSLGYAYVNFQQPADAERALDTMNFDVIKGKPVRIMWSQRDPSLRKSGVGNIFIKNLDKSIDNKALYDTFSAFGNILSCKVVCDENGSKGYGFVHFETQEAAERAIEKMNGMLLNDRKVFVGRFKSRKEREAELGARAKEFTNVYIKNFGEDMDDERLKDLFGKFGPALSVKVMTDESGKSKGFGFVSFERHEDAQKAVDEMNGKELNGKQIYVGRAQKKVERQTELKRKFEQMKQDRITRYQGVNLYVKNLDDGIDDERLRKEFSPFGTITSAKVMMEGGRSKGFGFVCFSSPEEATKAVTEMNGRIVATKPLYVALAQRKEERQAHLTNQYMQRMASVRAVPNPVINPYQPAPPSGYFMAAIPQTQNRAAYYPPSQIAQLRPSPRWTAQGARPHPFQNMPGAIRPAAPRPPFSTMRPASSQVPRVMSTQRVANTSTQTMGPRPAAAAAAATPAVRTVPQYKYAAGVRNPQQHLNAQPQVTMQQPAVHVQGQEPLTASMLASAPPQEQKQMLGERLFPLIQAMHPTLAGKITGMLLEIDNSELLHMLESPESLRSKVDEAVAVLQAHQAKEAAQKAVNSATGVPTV
Luciferin 4-monooxygenase, sequence (P08659 whole entry, the tested form may be a part): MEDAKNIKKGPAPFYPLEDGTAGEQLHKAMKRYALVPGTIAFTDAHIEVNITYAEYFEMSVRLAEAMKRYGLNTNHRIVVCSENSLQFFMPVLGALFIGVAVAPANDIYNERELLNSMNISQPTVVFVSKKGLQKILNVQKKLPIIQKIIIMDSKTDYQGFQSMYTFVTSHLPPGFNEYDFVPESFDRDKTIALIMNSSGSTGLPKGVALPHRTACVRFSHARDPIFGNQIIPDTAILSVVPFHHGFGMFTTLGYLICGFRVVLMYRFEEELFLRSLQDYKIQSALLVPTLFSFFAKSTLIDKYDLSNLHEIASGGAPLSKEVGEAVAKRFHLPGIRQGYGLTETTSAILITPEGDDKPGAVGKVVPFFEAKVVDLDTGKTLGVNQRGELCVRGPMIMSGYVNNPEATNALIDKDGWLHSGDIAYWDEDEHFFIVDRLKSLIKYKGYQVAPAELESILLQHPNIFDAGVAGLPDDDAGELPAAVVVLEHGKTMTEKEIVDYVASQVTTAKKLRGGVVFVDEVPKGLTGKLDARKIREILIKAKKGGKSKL

CCN1C(=O)C(CC(=O)Nc2ccc(OC)cc2)N(Cc2ccc3c(c2)OCO3)C1=S (centres undefined)
EC50 [1]: > 195 µM (not active)

CCCc1nc2sc3c(c2c(=O)n1NC(=O)CCC(=O)OC)CCCC3
EC50 [2]: > 112 µM (not active) | EC50 [3]: > 112 µM (not active)

Cn1cccc1/C=C1\C(=O)NC(=O)N(CCC2=CCCCC2)C1=O
EC50 [4]: 230 µM (inconclusive) | EC50 [5]: 35.6 µM (inconclusive) | EC50 [6]: 67.2 µM (active) | EC50 [7]: 82.1 µM (active)

COc1ccc(-c2nn(-c3ccccc3)cc2/C=C/C(=O)O)cc1[N+](=O)[O-]
IC50 [8]: 12.1 µM (active) | IC50 [9]: 13.6 µM (active)

Cc1cc(=O)oc2cc(OCCSCCN3CCCC3)ccc12
EC50 [2]: > 112 µM (not active) | EC50 [3]: > 112 µM (not active)

CC(C)(C)N(Cc1ccccc1)C(=O)COC(=O)c1cccc([N+](=O)[O-])c1
IC50 [8]: 4.39 µM (active) | IC50 [9]: 2.97 µM (active)

CCCNC(=O)N1CCCC(C(=O)c2cccc(Cl)c2)C1 (centres undefined)
EC50 [1]: > 195 µM (not active)

CCOc1ccc(NC(=O)c2ccc3c(=O)n(-c4ccc(OC)cc4OC)c(=S)[nH]c3c2)cc1
EC50 [10]: 12.4 µM (active) | EC50 [1]: > 195 µM (not active) | EC50 [11]: 7.86 µM (active) | EC50 [12]: > 150 µM (not active)

CN(C(=O)COC(=O)c1cc(O)nc2ccccc12)c1c(N)n(Cc2ccccc2)c(=O)[nH]c1=O
EC50 [1]: > 195 µM (not active)

CCOC(=O)c1cc2c(=O)n3cccc(C)c3nc2n(C)c1=N
EC50 [6]: 6.72 µM (active) | EC50 [7]: 4.97 µM (active)

Cc1ccc(Cl)cc1N1CCN(C(=O)c2cn(C)c(=O)c3c2c2ccccc2n3C)CC1
EC50 [6]: 3.36 µM (active) | EC50 [10]: 22.8 µM (active) | EC50 [13]: 11.4 µM (active) | EC50 [11]: 3.51 µM (active) | EC50 [7]: 4.17 µM (active) | EC50 [14]: 20.5 µM (active) | EC50 [12]: 9.73 µM (active) | EC50 [15]: 12.4 µM (active)

CCC(/N=c1\cc(-c2ccc(OC)c(OC)c2)oc2ccc(C)cc12)C(=O)O (centres undefined)
EC50 [1]: > 195 µM (not active)

O=C(COC(=O)C1CCCCC1)Nc1cc([N+](=O)[O-])ccc1F
IC50 [8]: 7.45 µM (active) | IC50 [16]: > 50 µM (not active) | IC50 [9]: 8.3 µM (active)

CCCNS(=O)(=O)c1ccc(OCC(=O)N2CCN(C)CC2)cc1
EC50 [1]: > 195 µM (not active)

O=C(CSc1ncnc2c1nnn2Cc1ccccc1)NC1CCCCC1
IC50 [8]: 24.3 µM (inactive) | IC50 [9]: 23.6 µM (inactive)

Nc1c(NC(=O)CC[n+]2ccccc2)cccc1[N+](=O)[O-]
EC50 [1]: 7.93 µM (active)

N#C/C(=C\c1ccccc1[N+](=O)[O-])C(=O)NC1CCCCC1
IC50 [17]: > 66 µM (inactive) | IC50 [18]: > 66 µM (inactive) | EC50 [19]: > 53 µM (inactive)

Cc1cnn(-c2cc(N/N=C/c3ccccc3F)ncn2)c1
AC50 [20]: 1.26 µM (inconclusive) | EC50 [6]: 12.7 µM (active) | EC50 [7]: 21 µM (active)

CCn1cc(C(=O)NCc2ccc(Cl)cc2)c(=O)c2cc(S(=O)(=O)N(C)C)ccc21
IC50 [8]: 9.03 µM (active) | IC50 [9]: 8.74 µM (active)

Cc1ccc(C)c(S(=O)(=O)N2CCN(C(=O)Cc3ccc(S(=O)(=O)N4CCOCC4)s3)CC2)c1
IC50 [8]: 6.49 µM (active) | IC50 [9]: 7.72 µM (active)

CC(=O)c1cccc(-c2ccnc3c2CC(C(=O)Nc2ccc(C(C)C)cc2)O3)c1 (centres undefined)
IC50 [8]: 10.8 µM (active) | IC50 [9]: 6.77 µM (active)
